Among the data in patent US20260216348A1, “IRAK DEGRADATION AGENT AND USE THEREOF” (Increland, priority 2023, published 2026) are IC50 and DC50 values, retold here.

Holding throughout (type): cell-based
Test [1] concerns R848-induced IL-6 secretion in human peripheral blood mononuclear cells (PBMCs). Kind of test: Inhibition of R848-induced IL-6 secretion in human PBMCs (IL-6 ELISA). The settings on record: PBMC, R848 2.5 μg/mL, 20 h pre-incubation, 24 h stimulation. Here is the method:
This experiment was carried out in RPMI 1640 medium containing 10% FBS and 1% penicillin/streptomycin, with each of the compounds at an initial test concentration of 1 μM. The compound was dissolved in DMSO to prepare a stock solution, which was serially diluted into a series of working solutions with a 4-fold concentration gradient using the culture medium and then added to a 96-well plate at 10 μL per well. PBMCs (Batch No.: P122101102C; Milecell Biotechnology Inc.) were counted and diluted to a cell concentration of 1.25×10^6 cells/mL, and then added to the aforementioned compound-containing 96-well plate at 160 μL per well. The system was mixed well and incubated in a 5% CO2 incubator at 37° C. for 20 h. Then 10 μL of R848 (final concentration: 2.5 μg/mL) was added, and the culture was continued for 24 h in a 5% CO2 incubator at 37° C. After incubation, the 96-well plate was centrifuged at 2000 rpm for 4 min. The supernatant was collected and diluted 120-fold, then detected using an IL-6 ELISA kit. The OD450 values were read, and converted to IL-6 concentrations based on a standard curve.
(An ELISA detects its analyte on a solid surface through an enzyme-linked reagent.)

In test [2] the target is T1, IRAK4 (Homo sapiens, UniProt Q9NWZ3).
T1 construct: Effect of the Compounds on IRAK4 Protein Degradation in THP1 Cells; endogenous in cells; host or cells: THP-1 cells
T1 sequence (Q9NWZ3 1-460): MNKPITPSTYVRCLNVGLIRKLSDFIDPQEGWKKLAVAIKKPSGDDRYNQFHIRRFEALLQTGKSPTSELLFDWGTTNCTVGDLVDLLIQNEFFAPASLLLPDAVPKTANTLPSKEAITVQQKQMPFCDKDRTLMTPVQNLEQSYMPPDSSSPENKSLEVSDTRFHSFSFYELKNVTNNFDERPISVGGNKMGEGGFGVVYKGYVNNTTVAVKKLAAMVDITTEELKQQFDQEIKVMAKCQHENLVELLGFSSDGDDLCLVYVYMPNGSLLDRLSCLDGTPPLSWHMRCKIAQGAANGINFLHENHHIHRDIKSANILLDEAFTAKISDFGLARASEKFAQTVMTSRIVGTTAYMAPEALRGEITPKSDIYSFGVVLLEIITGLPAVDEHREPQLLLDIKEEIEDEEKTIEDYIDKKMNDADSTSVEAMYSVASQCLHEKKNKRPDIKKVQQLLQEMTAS
Put plainly: IRAK4 protein degradation in THP1 cells (Western blot). The settings on record: THP-1 cells, 24 h. The procedure:
THP-1 cells were seeded into a 96-well cell culture plate, with 2×10^5 cells and 90 μL of culture medium per well. The cell culture plate was cultured in an incubator with 5% CO2 at 37° C. overnight. The compound was dissolved in DMSO to prepare a stock solution, which was serially diluted into a series of working solutions with a 5-fold concentration gradient using the culture medium and then added to the aforementioned 96-well plate at 10 μL per well. The cell culture plate was further incubated for 24 h in a 5% CO2 incubator at 37° C. After incubation, the 96-well plate was centrifuged and the supernatant was discarded, followed by adding 40 μL of cell lysis buffer containing […]/phosphatase inhibitors to each well for sufficient lysis on an ice bath. Protein quantification was performed using the BCA protein quantification kit, followed by the preparation of Western blot samples. […] After electrophoresis, protein transfer was performed using a PVDF membrane under ice bath conditions for 1 h. After the transfer was completed, the PVDF membrane was blocked with gentle shaking in 5% skim milk at room temperature for 1 h. After blocking, the PVDF membrane was incubated with the primary antibody overnight with gentle shaking at 4° C. The PVDF membrane was washed 3 times with TBST, then the secondary antibody was added and incubated for 1 h with gentle shaking at room temperature, followed by washing of the PVDF membrane with TBST for 3 times. After the washes were completed, the chemiluminescent substrate was added; the PVDF membrane was scanned using a Clinx imager, semi-quantitative analysis was performed with ImageJ software, and the DC50 was calculated using GraphPad Prism 8.0.

Test [3] concerns LPS/IL-1β-induced IL-6 secretion in human peripheral blood mononuclear cells (PBMCs). Kind of test: Inhibition of LPS/IL-1β-induced IL-6 secretion in human PBMCs (IL-6 ELISA). The settings on record: PBMC, LPS 10 ng/mL + IL-1β 20 ng/mL, 24 h pre-incubation, 20 h stimulation. The procedure:
This experiment was carried out in RPMI 1640 medium containing 10% FBS and 1% penicillin/streptomycin, with each of the compounds at an initial test concentration of 1 μM.
The compound was dissolved in DMSO to prepare a stock solution, which was serially diluted into some working solutions with a 5-fold concentration gradient using the culture medium and then added to a 96-well plate at 10 μL per well. PBMCs (Batch No.: P122101102C; Milecell Biotechnology Inc.) were counted and diluted to a cell concentration of about 1.3×10^6 cells/mL, and then added to the aforementioned compound-containing 96-well plate at 150 μL per well. The system was mixed well and incubated in a 5% CO2 incubator at 37° C. for 24 h. Then 5 μL of LPS (final concentration: 10 ng/mL) and 5 μL of IL-1β (final concentration: 20 ng/mL) were added to each well, respectively, and the culture was continued for 20 h in a 5% CO2 incubator at 37° C. After incubation, the 96-well plate was centrifuged at 2000 rpm for 4 min. The supernatant was collected and diluted 200-fold, then detected using an IL-6 ELISA kit. The OD450 values were read, and converted to IL-6 concentrations based on a standard curve. The dose-response curves were fitted using GraphPad 8.0 to calculate the IC50 values.

One may read the IC50 as the concentration at which inhibition is half-maximal. Regarding `CN(C)c1cc2nn([C@H]3CC[C@H](CN4C[C@@H](F)[C@@H](n5cc6c(F)cc(N7CCC(=O)NC7=O)cc6n5)C4)CC3)cc2cc1NC(=O)c1cnn2cccnc12` [TM-219], the midpoint of inhibition in test [1], the IC50, lay at 14.8 nM.
Still for that read-out and setting: as for `CN(C)c1cc2nn([C@@H]3CC[C@@H](CN4CC[C@@H](n5cc6c(F)cc(N7CCC(=O)NC7=O)cc6n5)C4)OC3)cc2cc1NC(=O)c1cnn2cccnc12` [TM-225], the figure is 12.3 nM; as for `CN(C)c1cc2nn([C@H]3CC[C@H](CN4C[C@H](F)[C@@H](n5cc6cc(F)c(N7CCC(=O)NC7=O)cc6n5)C4)CC3)cc2cc1NC(=O)c1cnn2cccnc12` [TM-223], 10.8 nM; as for `CN(C)c1cc2nn([C@H]3CC[C@H](CN4CC[C@@H](c5nc6cc(N7CCC(=O)NC7=O)ccc6o5)C4)CC3)cc2cc1NC(=O)c1cnn2cccnc12` [TM-226], 4.28 nM.
`CN(C)c1cc2nc([C@H]3CC[C@H](CN4CCC(n5cc6c(F)cc(N7CCC(=O)NC7=O)cc6n5)CC4)CC3)cn2nc1NC(=O)c1cnn2cccnc12` [TM-228] yielded an IC50 in test [1] of 14.7 nM.
For the compound `CN(C)c1cc2nn([C@H]3CC[C@H](CN4CCC(c5nc6cc(C7CCC(=O)NC7=O)cc(F)c6o5)CC4)CC3)cc2cc1NC(=O)c1cnn2cccnc12` (stereo partly shown) [TM-238], it took 4.18 nM to reach half-maximal inhibition in test [1] (IC50).
In test [1], `CN(C)c1cc2nn([C@H]3CC[C@H](CN4CC[C@@H](n5cc6c(F)cc(N7CCC(=O)NC7=O)cc6n5)C4)CC3)cc2cc1NC(=O)c1cnn2cccnc12` [TM-217] gave an IC50 of 8.59 nM.
Regarding `CN(C)c1cc2nn([C@@H]3CC[C@@H](CN4CC[C@H](n5cc6c(F)cc(N7CCC(=O)NC7=O)cc6n5)C4)OC3)cc2cc1NC(=O)c1cnn2cccnc12` [TM-224], the IC50 in test [1] is 15.5 nM.
On the same count and under the same terms, as for `CN(C)c1cc2nn([C@H]3CC[C@H](CN4CC[C@H](n5cc6c(F)cc(N7CCC(=O)NC7=O)cc6n5)C4)CC3)cc2cc1NC(=O)c1cnn2cccnc12` [TM-216], the figure is 13.4 nM; as for `CN(C)c1nc2nc([C@H]3CC[C@H](CN4C[C@@H](n5cc6cc(N7CCC(=O)NC7=O)ccc6n5)[C@@H](F)C4)CC3)cn2cc1NC(=O)c1cnn2cccnc12` [TM-236], 22.4 nM.
Still for that read-out and setting: as for `CN(C)c1cc2nn([C@H]3CC[C@H](CN4CC[C@@H](n5cc6c(F)cc(C7CCC(=O)NC7=O)cc6n5)C4)CC3)cc2cc1NC(=O)c1cnn2cccnc12` (stereo partly shown) [TM-235], the figure is 6.08 nM; as for `CN(C)c1cc2nn([C@H]3CC[C@H](CN4C[C@@H](n5cc6cc(N7CCC(=O)NC7=O)c(F)cc6n5)[C@@H](F)C4)CC3)cc2cc1NC(=O)c1cnn2cccnc12` [TM-232], 18.9 nM.
Still for that read-out and setting: as for `O=C1CCC(c2ccc3cn([C@@H]4CCN(C[C@H]5CC[C@H](n6cc7cc(NC(=O)c8cnn9cccnc89)c(F)cc7n6)CC5)C4)nc3c2)C(=O)N1` (stereo partly shown) [TM-222], the figure is 14 nM.
For orientation: DC50 means the concentration giving 50% degradation. `CN(C)c1cc2nn([C@H]3CC[C@H](CN4CCC(N5Cc6ccc(N7CCC(=O)NC7=O)cc6C5=O)CC4)CC3)cc2cc1NC(=O)c1cnn2cccnc12` [TM-143] came in with a DC50 in test [2] of 135 nM. In addition, the IC50 in test [3] was 11.9 nM.
`CN(C)c1cc2nn([C@H]3CC[C@H](CN4CC[C@@H](n5cc6ccc(N7CCC(=O)NC7=O)cc6n5)[C@H](F)C4)CC3)cc2cc1NC(=O)c1cnn2cccnc12` [TM-30] yielded a DC50 in test [2] of 1.33 nM. Moreover, the IC50 in test [3] was found to be 1.05 nM.
For `CN(C)c1cc2nn(C3CCN(C[C@H]4CC[C@H](n5cc6cc(N7CCC(=O)NC7=O)c(F)cc6n5)CC4)CC3)cc2cc1NC(=O)c1cnn2cccnc12` [TM-51], in that order: 23.3 nM and 3.14 nM.
For `O=C1CCN(c2ccc3cn(C4CCN(C[C@H]5CC[C@H](n6cc7cc(NC(=O)c8cnn9cccnc89)c(N8CCOCC8)cc7n6)CC5)CC4)nc3c2)C(=O)N1` [TM-43], in that order: 4.31 nM and 8.92 nM.
The corresponding values for `CN(C)c1cc2nn([C@H]3CC[C@H](CN4CC[C@H](n5cc6cc(N7CCC(=O)NC7=O)c(F)cc6n5)[C@H](F)C4)CC3)cc2cc1NC(=O)c1cnn2cccnc12` [TM-130] are 4.26 nM and 5.12 nM.
The compound `CN(C)c1cc2nn([C@H]3CC[C@H](CN4CC[C@@H](n5cc6cc(N7CCC(=O)NC7=O)ccc6n5)[C@@H](F)C4)CC3)cc2cc1NC(=O)c1cnn2cccnc12` [TM-15] yielded a DC50 in test [2] of 1.41 nM. For the same compound, the IC50 in test [3] was 4 nM.
The corresponding values for `CN(C)c1cc2nn([C@H]3CC[C@H](CN4CCCN(c5nc6cc(N7CCC(=O)NC7=O)ccc6s5)CC4)CC3)cc2cc1NC(=O)c1cnn2cccnc12` [TM-59] are 9.64 nM and 10.9 nM.
In test [2], `CN(C)c1cc2nn([C@H]3CC[C@H](CN4CC[C@@H](n5cc6cc(F)c(C7CCC(=O)NC7=O)cc6n5)[C@@H](F)C4)CC3)cc2cc1NC(=O)c1cnn2cccnc12` (stereo partly shown) [TM-139] came in with a DC50 below 1 nM. Further, the IC50 in test [3] was 4.35 nM.
The corresponding values for `CN(C)c1cc2nn([C@H]3CC[C@H](CN4CC[C@H](n5cc6cc(N7CCC(=O)NC7=O)c(F)cc6n5)[C@@H](F)C4)CC3)cc2cc1NC(=O)c1cnn2cccnc12` [TM-131] are 0.81 nM and 5.07 nM.
The corresponding values for `CN(C)c1cc2nn([C@H]3CC[C@H](CN4CC5(CCN(c6nc7ccc(C8CCC(=O)NC8=O)cn7n6)CC5)C4)CC3)cc2cc1NC(=O)c1cnn2cccnc12` (stereo partly shown) [TM-251] are 18.1 nM and 2.19 nM.
For `CN(C)c1cc2nn([C@H]3CC[C@H](CN4CCC(n5cc6cc(N7CCC(=O)NC7=O)c(F)cc6n5)CC4)CC3)cc2cc1NC(=O)c1cnn2cccnc12` [TM-9], in that order: 5.41 nM and 2.03 nM.
With `CN(C)c1cc2nn([C@H]3CC[C@H](CN4CC[C@@H](n5cc6ccc(C7CCC(=O)NC7=O)cc6n5)[C@@H](F)C4)CC3)cc2cc1NC(=O)c1cnn2cccnc12` (stereo partly shown) [TM-154], it took 1.27 nM to reach half-maximal degradation in test [2] (DC50). For the same compound, the IC50 in test [3] was 1.45 nM.
For `CN(C)c1cc2nn([C@H]3CC[C@H](CN4CC[C@@H](n5cc6cc(N7CCC(=O)NC7=O)c(F)cc6n5)[C@@H](F)C4)CC3)cc2cc1NC(=O)c1cnn2cccnc12` [TM-42], in that order: 0.93 nM and 1.65 nM.
Take `CN(C)c1cc2nn([C@H]3CC[C@H](CN4CCN(c5nc6cc(C7CCC(=O)NC7=O)ccc6o5)CC4)CC3)cc2cc1NC(=O)c1cnn2cccnc12` (stereo partly shown) [TM-106]: half-maximal degradation in test [2] (DC50) was put at 3.82 nM. Further, the IC50 in test [3] turned out to be 2.52 nM.
On to `CN(C)c1cc2nn([C@H]3CC[C@H](CN4CC[C@@H](n5cc6cc(N7CCC(=O)NC7=O)c(F)cc6n5)[C@H](F)C4)CC3)cc2cc1NC(=O)c1cnn2cccnc12` [TM-41], for which the DC50 in test [2] is below 1 nM. For the same compound, in test [3], the IC50 stood at 3.89 nM.
